{"source": "patent US20110244496A1", "about": "“HIV REVERSE TRANSCRIPTASE COMPOSITIONS AND METHODS” (priority 2007, published 2011)", "key": {"[1]": {"molecular_target": "T1, Lys103Asn/Tyr181Cys double mutant RT (Human immunodeficiency virus type 1 group M subtype B, UniProt P03366, K702N/Y780C)", "T1 construct": "RT is a heterodimer consisting of a p66 and p51 subunit", "conditions": "cited from earlier work"}, "[2]": {"molecular_target": "T2, Leu100Ile/Lys103Asn double mutant RT (Human immunodeficiency virus type 1 group M subtype B, UniProt P03366, K702N/L699I)", "T2 construct": "RT is a heterodimer consisting of a p66 and p51 subunit", "assay": "EC50 of TMC278 against L100I/K103N double mutant", "format": "cell-based, HIV-1", "conditions": "Example 4 (Table 1, not given)"}, "wild-type RT": {"molecular_target": "T3, wild-type RT (Human immunodeficiency virus type 1 group M subtype B, UniProt P03366)", "T3 construct": "RT is a heterodimer consisting of a p66 and p51 subunit", "conditions": "cited from earlier work"}, "[3]": {"molecular_target": "T1, Lys103Asn/Tyr181Cys double mutant RT", "assay": "EC50 of TMC278 against K103N/Y181C double mutant", "format": "cell-based, HIV-1", "conditions": "Example 4"}, "[4]": {"molecular_target": "T2, Leu100Ile/Lys103Asn double mutant RT", "conditions": "cited from earlier work"}, "[5]": {"conditions": "patients given TMC278 once daily for seven days; Goebel et al., 2006; cited from earlier work"}, "HIV-1": {"tested_on": "HIV-1", "conditions": "antiretroviral naïve patients; once daily 25, 50, 100, or 150 mg for seven days; day 8 versus before initial dosage; Goebel et al., 2006; cited from earlier work"}, "Y181C RT mutant": {"molecular_target": "T4, Y181C RT mutant (Human immunodeficiency virus type 1 group M subtype B, UniProt P03366, Y780C)", "T4 construct": "RT is a heterodimer consisting of a p66 and p51 subunit", "assay": "EC50 of TMC278 against Y181C mutant", "format": "cell-based, HIV-1", "conditions": "Example 4"}, "K103N RT mutant": {"molecular_target": "T5, K103N RT mutant (Human immunodeficiency virus type 1 group M subtype B, UniProt P03366, K702N)", "T5 construct": "RT is a heterodimer consisting of a p66 and p51 subunit", "assay": "EC50 of TMC278 against K103N mutant", "format": "cell-based, HIV-1", "conditions": "Example 4"}, "[6]": {"conditions": "Goebel et al., 2006, cited from earlier work"}}, "note": "Like-named read-outs stand apart in the source and are kept apart here."}
{"substance": "rilpivirine [TMC278]", "values": [{"measurement": "EC50", "setting": "[1]; K103N and Y181C (RT55A mutations), de Bethune et al. online poster 2005", "result": 1.7, "unit": "nM"}, {"measurement": "EC50", "setting": "[1]; Lys103Asn/Tyr181Cys double mutant, Guillemont et al., 2005, Janssen et al", "result": 1, "unit": "nM"}, {"measurement": "EC50", "setting": "[2]", "result": "~8", "unit": "nM"}, {"measurement": "EC50", "setting": "wild-type RT; Example 2, read-out: EC50 (the 50% effective concentration)", "result": 0.4, "unit": "nM"}, {"measurement": "EC50", "setting": "wild-type RT; de Bethune et al. online poster 2005, read-out: EC50", "result": 0.51, "unit": "nM"}, {"measurement": "EC50", "setting": "[3]", "result": "< 1", "unit": "nM"}, {"measurement": "EC50", "setting": "[4]; L100I and K103N (RT51A mutations), de Bethune et al. online poster 2005, read-out: EC50", "result": 2.7, "unit": "nM"}, {"measurement": "EC50", "setting": "[4]; double mutant Leu100Ile/Lys103Asn, Example 2, read-out: EC50 (the 50% effective concentration)", "result": 7, "unit": "nM"}, {"measurement": "headaches reported, patients", "setting": "[5]", "result": 14, "unit": "%"}, {"measurement": "average decrease of HIV-1 RNA viral load", "setting": "HIV-1", "result": 1.199, "unit": "log10 copies/ml"}, {"measurement": "EC50", "setting": "Y181C RT mutant", "result": "< 1", "unit": "nM"}, {"measurement": "EC50", "setting": "K103N RT mutant", "result": "< 1", "unit": "nM"}, {"measurement": "plasma concentrations of TMC278", "setting": "[6]; at any of the time points tested, target concentration 13.5 ng/ml", "result": "≥ 13.5", "unit": "ng/mL"}, {"measurement": "Bioavailability", "setting": "[6]; patients, once daily dosage", "result": "excellent"}]}
